Drawing on patent US12559494B2, “Functionalized lactams as modulators of the 5-hydroxytryptamine receptor 7 and their method of use” (Temple University - Of The Commonwealth System of Higher …, priority 2018, dated 2026), this text covers Kb for 16 molecules.

SMILES strings stand for the structures.

Sequence of 5HT7 receptors (P34969 whole entry, the tested form may be a part): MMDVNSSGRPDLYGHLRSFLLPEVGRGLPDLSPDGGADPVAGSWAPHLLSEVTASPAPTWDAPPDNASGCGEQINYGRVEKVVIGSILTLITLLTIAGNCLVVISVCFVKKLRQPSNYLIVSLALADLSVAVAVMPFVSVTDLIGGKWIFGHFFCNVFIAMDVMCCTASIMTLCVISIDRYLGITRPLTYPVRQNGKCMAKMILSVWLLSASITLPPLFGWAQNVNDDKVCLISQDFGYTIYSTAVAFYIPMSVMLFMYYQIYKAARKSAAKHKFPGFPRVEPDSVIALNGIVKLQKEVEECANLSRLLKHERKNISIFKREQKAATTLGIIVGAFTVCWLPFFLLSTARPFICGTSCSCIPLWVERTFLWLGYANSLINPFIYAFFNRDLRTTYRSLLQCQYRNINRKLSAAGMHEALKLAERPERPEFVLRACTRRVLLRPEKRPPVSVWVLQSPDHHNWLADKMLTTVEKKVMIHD

The target in one assay is 5HT7 receptors (Homo sapiens, UniProt P34969). As to the kind of experiment: Functional data (Kb), HitHunter cAMP enzyme fragment complementation assay with 5-HT as agonist. The conditions noted are these: Table 35, scaffold drawing 615; antagonist mode vs 5-HT; read-out: Kb. Further details: expressed in transfected cells; G418 selection). The class given is cell-based. As to the method:
Functional efficacy of the compounds of the disclosure on 5-HT7 serotonin receptors were measured in a cell based cAMP enzyme fragment complementation assay using the HitHunter cAMP assay (DiscoveRx). Cells stably expressing human 5HT7 receptors were plated in 96-well plates at 4000 cells/well, 16-20 hours prior to assay in growth media (Ultraculture medium, 2 mM GlutaMax and G418 1 mg/mL. Serial dilutions of the agonist, 5-hydroxytryptamine (5-HT), were prepared in a final concentration range of 10 μM to 10 nM. Compounds of the disclosure were prepared in 3-fold serial dilutions to obtain a final concentration range of 10 μM to 0.1 nM. Compounds of the disclosure are tested for agonist activity in the absence of 5-HT and antagonist activity in the presence of 5-HT. For the cAMP assay, the protocol was followed according to the instructions provided by the supplier. Briefly, cells were incubated with a compound of the disclosure for 30 minutes at 37° C. prior to addition of EC70 concentration of 5-HT. After an additional 30 minutes, cAMP antibody/cell lysis solution was added (20 μL/well) and incubated for 60 minutes at room temperature. cAMP XS+EA reagent is added (20 μL/well) and incubated for 2 hours at room temperature. Luminescence was read on the Envision Multilabel plate reader.
With `CCC1(CC)C[C@H](CCN2CCN(c3ccc(C(F)(F)F)cc3)CC2)NC1=O` [(R)-3,3-diethyl-5-(2-(4-(4-(trifluoromethyl)phenyl)piperazin-1-yl)ethyl)pyrrolidin-2-one], the antagonist equilibrium constant (Kb) worked out at 137 nM. Same read-out and setting: the value for `CCC1(CC)C[C@H](CCN2CCN(c3ccccn3)CC2)NC1=O` [(R)-3,3-diethyl-5-(2-(4-(pyridin-2-yl)piperazin-1-yl)ethyl)pyrrolidin-2-one] was 4.91 nM; that for `CCC1(CC)C[C@H](CCN2CCN(c3ccc(C#N)cc3)CC2)NC1=O` [(R)-4-(4-(2-(4,4-diethyl-5-oxopyrrolidin-2-yl)ethyl)piperazin-1-yl)benzonitrile] was 544 nM.

Consider `CCC1(CC)C[C@H](CCN2CCN(c3cccc(F)c3)CC2)NC1=O` [(R)-5-(2-(4-(3-fluorophenyl)piperazin-1-yl)ethyl)-3,3-diethylpyrrolidin-2-one], for which the Kb stood at 9.89 nM. `CCC1(CC)C[C@H](CCN2CCN(c3ccccc3Cl)CC2)NC1=O` [(R)-5-(2-(4-(2-chlorophenyl)piperazin-1-yl)ethyl)-3,3-diethylpyrrolidin-2-one]: the Kb was found to be 109 nM. The same measure, in the same setting: for `CCC1(CC)C[C@H](CCN2CCN(c3ccccc3)CC2)NC1=O` [drawing 615 n=2 R1=Ethyl R2=Ethyl R3=Phenyl, (R)-3,3-diethyl-5-(2-(4-phenylpiperazin-1-yl)ethyl)pyrrolidin-2-one] the value was 6.59 nM; for `CCC1(CC)C[C@H](CCN2CCN(c3ccccc3OC)CC2)NC1=O` [(R)-3,3-diethyl-5-(2-(4-(2-methoxyphenyl)piperazin-1-yl)ethyl)pyrrolidin-2-one], 230 nM; for `CCC1(CC)C[C@H](CCN2CCN(c3cccc(C)c3)CC2)NC1=O` [(R)-5-(2-(4-(3-methylphenyl)piperazin-1-yl)ethyl)-3,3-diethylpyrrolidin-2-one], 1.65 nM. As to `CCC1(CC)C[C@H](CCN2CCN(c3ccccc3C)CC2)NC1=O` [(R)-5-(2-(4-(2-methylphenyl)piperazin-1-yl)ethyl)-3,3-diethylpyrrolidin-2-one], the Kb was 127 nM.

The same assay, now with this note: Table 36, scaffold drawing 616; antagonist mode vs 5-HT; read-out: Kb.
In the case of `O=C1N[C@H](CCN2CCN(c3cccc(Cl)c3)CC2)CC12CC=CC2` [(S)-3-(2-(4-(3-chlorophenyl)piperazin-1-yl)ethyl)-2-azaspiro[4.4]non-7-en-1-one], the antagonist equilibrium constant (Kb) worked out at 36.3 nM. As for `O=C1N[C@H](CCN2CCN(c3ccc(F)cc3)CC2)CC12CC=CC2` [(S)-3-(2-(4-(4-fluorophenyl)piperazin-1-yl)ethyl)-2-azaspiro[4.4]non-7-en-1-one], the Kb is 46.2 nM. With `O=C1N[C@H](CCN2CCN(c3ccc(F)cc3)CC2)CC12CCCC2` [(S)-3-(2-(4-(4-fluorophenyl)piperazin-1-yl)ethyl)-2-azaspiro[4.4]nonan-1-one], the Kb came to 52.6 nM.

Consider `O=C1N[C@H](CCN2CCN(c3cccc(Cl)c3)CC2)CC12CCCC2` [(S)-3-(2-(4-(3-chlorophenyl)piperazin-1-yl)ethyl)-2-azaspiro[4.4]nonan-1-one], for which the Kb amounted to 48.4 nM.

The same assay, now with this note: Table 37, scaffold drawing 617; antagonist mode vs 5-HT; read-out: Kb.
As for `CS(=O)(=O)N1CCC2(CC1)C[C@H](CCCN1CCN(c3ccc(F)cc3)CC1)NC2=O` [drawing 617 n=3 R3=4-F-Phenyl R7=MeSO2, (S)-3-(3-(4-(4-fluorophenyl)piperazin-1-yl)propyl)-8-(methylsulfonyl)-2,8-diazaspiro[4.5]decan-1-one], the antagonist dissociation constant (Kb) turned out to be 526 nM. Turning to `CS(=O)(=O)N1CCC2(CC1)C[C@H](CCCN1CCN(c3cccc(Cl)c3)CC1)NC2=O` [drawing 617 n=3 R3=3-Cl-Phenyl R7=MeSO2, (S)-3-(3-(4-(3-chlorophenyl)piperazin-1-yl)propyl)-8-(methylsulfonyl)-2,8-diazaspiro[4.5]decan-1-one], the Kb turned out to be 321 nM.

Still in this assay, the particulars now being: cAMP assay, cells stably expressing human 5HT7 receptors, antagonist activity in the presence of EC70 5-HT; read-out: Kb (nM)^2.
In the case of `CS(=O)(=O)N1CCC2(CC1)C[C@@H](CCN1CCN(c3ccc(F)cc3)CC1)NC2=O` [drawing 618; n=2; R3=4-F-Phenyl; R7=MeSO2, (S)-3-(2-(4-(4-fluorophenyl)piperazin-1-yl)ethyl)-8-(methylsulfonyl)-2,8-diazaspiro[4.5]decan-1-one], the Kb is 74.2 nM.

As a reminder, the Kb is the equilibrium dissociation constant of an antagonist, usually derived from a functional assay.
